From article PMC9385959, “Mammalian derived lipocalin and secretoglobin respiratory allergens strongly bind ligands with potentially immune modulating properties” (Frontiers in Allergy, 2022)
“And” between values parts separate entries of the source, which are not always exact repeats. Equal values may be shown once. Read-outs that look alike come from different tables or passages of the source.

Assays:
[1] = target: T1, Can f 1 (Canis lupus familiaris, UniProt O18873); experiment: Competitive fluorescence-quenching assay, Can f 1; format: binding, dog; conditions: for inhibition at 50 µM: read-out: Mean fluorescence inhibition
T1 construct: made in house; host or cells: E. coli Rosetta-gami 2(DE3)
Description: (§1) Fluorescence quenching assays were performed as previously described ([45]), with modifications. Fluorochromes and ligands were purchased from Sigma Aldrich (Steinheim, Germany), Carl Roth (Karlsruhe, Germany) and TCI Europe N.V. (Zwijndrecht, Belgium).
(§2) Stock solutions were prepared at a concentration of 10 mM in 100% ethanol for the fluorochromes 1-aminoanthracene (1-AMA), 8-anilino-1-naphthalensulfonic acid (1,8-ANS) and for all ligands, and in 100% methanol for n-phenyl-1-naphthylamine (1-NPN), respectively. Iron catecholate ligands (siderophores) were prepared as previously described ([46]). Fluorochrome-protein complexes were analyzed at an equimolar concentration of 5 μM in PBS with 5% ethanol in a volume of 100 μL per well in black 96-well non-binding microplates (Greiner Bio-One GmbH, Frickenhausen, Germany). Solutions containing only protein or the respective fluorescent probe in PBS with 5% ethanol served as controls. Fluorochrome-protein complexes were incubated with orbital shaking for 10 min at 500 rpm at room temperature (RT) before measurement using the fluorescence reader TECAN Infinite 200 Pro (Tecan Trading AG, Switzerland). Excitation wavelengths were fixed at 380 nm for 1-AMA and 1,8-ANS, and 337 nm for 1-NPN. Fluorescence emission spectra were recorded in 5 nm steps between 420 and 560 nm for 1-AMA and 1,8-ANS and between 380 and 500 nm for 1-NPN. The establishment of fluorescent quenching assay parameters for each allergen is explained in the results Section Fluorescence-quenching assay set up. Binding affinities were analyzed by non-linear regression in GraphPad Prism Version 9.3.1 (GraphPad Software, LLC). For the ligand competition assays, ligands were added to fluorochrome-allergen complexes with a final buffer composition of 5% ethanol in PBS in a volume of 100 μL and incubated for 30 min at 500 rpm at RT and further equilibrated for another 30 min without shaking before fluorescence measurement.
(§3) The binding affinities of non-fluorescent ligands is inferred to by their ability to compete and displace the fluorochromes bound to the allergen at a certain concentration. This leads to a measurable decrease in fluorescence intensity that will be expressed as fluorescence inhibition (Figure 6). For a given allergen, the ligand with the strongest inhibition has the highest binding affinity. […] Competitive ligand binding was analyzed by non-linear regression and inhibitory dissociation constants (Ki) were calculated.

[2] = target: T2, human LCN1 (Homo sapiens, UniProt P31025); experiment: Competitive fluorescence-quenching assay, LCN1; format: binding; conditions: for Ki: 5 μM LCN1, fluorochrome 1,8-ANS, read-out: Ligand inhibition constant Ki
T2 construct: made in house; host or cells: E. coli Rosetta-gami 2(DE3)
Description: as §1, §2, §3

[3] = target: Ory c 3 (Oryctolagus cuniculus, UniProt Q9GK63+Q9GK67); experiment: Competitive fluorescence-quenching assay, Ory c 3; format: binding, rabbit; conditions: for inhibition at 50 µM: read-out: Mean fluorescence inhibition
Description: as §1, §2, §3

[4] = target: T3, Fel d 1 (Felis catus, UniProt P30438+P30440); experiment: Competitive fluorescence-quenching assay, Fel d 1; format: binding, cat
T3 construct: polyhistidine tag (C); made in house; host or cells: E. coli Rosetta-gami 2
T3 sequence (P30438+P30440 with tags, fused parts or gaps): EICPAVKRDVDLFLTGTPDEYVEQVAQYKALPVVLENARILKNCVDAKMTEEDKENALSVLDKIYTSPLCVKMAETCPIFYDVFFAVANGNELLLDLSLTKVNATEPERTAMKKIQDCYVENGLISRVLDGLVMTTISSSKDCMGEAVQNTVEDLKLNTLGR
Description: as §1, §2, §3

[5] = target: Cav p 1.0101 (Cavia porcellus, UniProt A0A484HM70, S19A); experiment: Competitive fluorescence-quenching assay, Cav p 1.0101; format: binding, guinea pig; conditions: for inhibition at 50 µM / Mean fluorescence inhibition: 5 μM Cav p 1.0101-1-AMA complex, 50 μM ligand, n = 2
Description: as §1, §2, §3

[6] = target: Cav p 1.0201 (Cavia porcellus, UniProt A0A484HRI4); experiment: Competitive fluorescence-quenching assay, Cav p 1.0201; format: binding, guinea pig; conditions: for inhibition at 50 µM / Mean fluorescence inhibition: 5 μM Cav p 1.0201-1-AMA complex, 50 μM ligand, n = 2
Description: as §1, §2, §3

[7] = target: Ory c 2; experiment: Competitive fluorescence-quenching assay, Ory c 2; format: binding, rabbit; conditions: for Mean fluorescence inhibition: 5 μM Ory c 2-1-AMA complex, 50 μM ligand, n = 2
Description: as §1, §2, §3

[8] = target: T4, Fel d 4 (Felis catus, UniProt Q5VFH6); experiment: Competitive fluorescence-quenching assay, Fel d 4; format: binding, cat; conditions: 5 μM Fel d 4-1-NPN complex, 100 μM ligand; read-out: Mean fluorescence inhibition
T4 construct: polyhistidine tag (C); made in house; host or cells: E. coli Rosetta-gami 2
T4 sequence (Q5VFH6 16-186): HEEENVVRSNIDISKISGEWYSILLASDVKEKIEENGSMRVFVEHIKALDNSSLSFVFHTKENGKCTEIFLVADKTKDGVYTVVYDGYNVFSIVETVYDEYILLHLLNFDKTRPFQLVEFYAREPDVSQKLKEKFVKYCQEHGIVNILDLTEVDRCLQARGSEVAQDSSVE
Description: as §1, §2, §3

[9] = target: T5, Can f 6 (Canis lupus familiaris, UniProt H2B3G5); experiment: Competitive fluorescence-quenching assay, Can f 6; format: binding, dog; conditions: 5 μM Can f 6-1-NPN complex, 100 μM ligand; high standard error; read-out: Mean fluorescence inhibition
T5 construct: polyhistidine tag (C); made in house; host or cells: E. coli Rosetta-gami 2
T5 sequence (H2B3G5 16-190): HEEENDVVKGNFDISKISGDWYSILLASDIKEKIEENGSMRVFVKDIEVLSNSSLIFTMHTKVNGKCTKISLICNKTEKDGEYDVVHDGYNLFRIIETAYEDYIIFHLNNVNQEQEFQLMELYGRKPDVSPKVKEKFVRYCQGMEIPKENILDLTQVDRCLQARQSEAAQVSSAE
Description: as §1, §2, §3

[10] = 5 μM LCN1-1,8-ANS complex, 50 μM ligand, n = 2
[11] = 5 μM Ory c 3-1-AMA complex, 50 μM ligand, n = 2
[12] = read-out: Mean fluorescence inhibition, 5 μM Fel d 1 + 1,8-ANS complex, 100 μM ligand
[13] = read-out: Mean fluorescence inhibition, 5 μM Fel d 1 + 1-NPN complex, 100 μM ligand

CCCCCCCCCCCCCC(=O)O [Tetradecanoic acid, tetradecanoic acid]
Ki ([1]; 5 μM Can f 1, fluorochrome 1,8-ANS, read-out: Ligand inhibition constant Ki): 7400 nM | inhibition at 50 µM [1]: 60.8% | Ki [2]: 1800 nM | inhibition at 50 µM [2, 10]: 91.9%

CCCCC/C=C\C/C=C\C/C=C\C/C=C\CCCC(=O)O [Arachidonic acid, arachidonic acid]
Ki [1]: 1300 nM | inhibition at 50 µM [1]: 86.4% | Ki [2]: 1900 nM | inhibition at 50 µM [2, 10]: 96.7%

CCCCCCCCCC(=O)O [Decanoic acid, decanoic acid]
inhibition at 50 µM [3, 11]: 76.1% | inhibition at 100 µM [4, 12]: 71.2% | inhibition at 100 µM [4, 13]: 101%

CCCc1ccc(O)cc1 [4-Propylphenol, 4-propylphenol]
inhibition at 50 µM [5]: 65.7% | inhibition at 50 µM [6]: 57% | Ki ([7]; 5 μM Ory c 2, fluorochrome 1-AMA, read-out: Ligand inhibition constant Ki): 2600 nM | Mean fluorescence inhibition [7]: 93.2% | inhibition at 50 µM [3, 11]: 93.2% | inhibition at 100 µM [4, 12]: 52.8% | inhibition at 100 µM [4, 13]: 65.3%

CCCCCCCCCCO [1-Decanol, 1-decanol]
inhibition at 50 µM [5]: 99% | Ki ([5]; Ligand inhibition constant Ki, 5 μM Cav p 1.0101, fluorochrome 1-AMA): 800 nM | Ki [6]: 1100 nM | inhibition at 50 µM [6]: 98.2% | Mean fluorescence inhibition [7]: 75.1% | Ki [3]: 700 nM | inhibition at 50 µM [3, 11]: 98% | inhibition at 100 µM [4, 12]: 68.4%

Lipopolysaccharide
Mean fluorescence inhibition ([1]; 5 μM Can f 1-1,8-ANS complex, 50 μM ligand, n = 2): 57.4% | Mean fluorescence inhibition [2, 10]: 81% and 81.2%

CC(C)c1cccc(O)c1 [3-Isopropylphenol, 3-ilsopropylphenole]
inhibition at 50 µM [5]: 55.3% | inhibition at 50 µM [6]: 75.7% | Mean fluorescence inhibition [7]: 89.5% | inhibition at 100 µM [8]: 89.5% | inhibition at 100 µM [9]: 107%

CC(C)=CCCC(C)=CC#N [Geranyl nitrile, geranyl nitrile]
Mean fluorescence inhibition [5]: 57.4% | Mean fluorescence inhibition [6]: 89.1% | Mean fluorescence inhibition [7]: 91.2%

monophosphoryl lipid A [MPLA]
Mean fluorescence inhibition [5]: more than half | Mean fluorescence inhibition [6]: more than half | Mean fluorescence inhibition [3, 11]: more than half

CCCCCCCCCCCCO [1-Dodecanol, 1-dodecanol]
inhibition at 50 µM [5]: 98.9% | inhibition at 50 µM [6]: 97% | Mean fluorescence inhibition [7]: 84.6% | inhibition at 50 µM [3, 11]: 95.6% | inhibition at 100 µM ([4]; 5 μM Fel d 1 + 1,8-ANS complex, 100 μM ligand, read-out: Mean fluorescence inhibition): 44.2%

CCCCCCCCCCCCCCCO [Pentadecanol, pentadecanol]
Mean fluorescence inhibition [5]: 51.3% | Mean fluorescence inhibition [6]: 94.5% | Mean fluorescence inhibition [7]: 20.8%
